The record followed here is patent publication US20090036448A1, “PYRIMIDINE DERIVATIVES AND METHODS OF TREATMENT RELATED TO THE USE THEREOF” (TAISHO PHARMECUTICAL CO., LTD., priority 2004, published 2009).

This test deals with MCH receptor (Homo sapiens, UniProt Q99705). Put plainly: Receptor binding assay with Radiolabelled MCH Ligand. Further details: expressed in transfected cells; host or cells: 293 cells (human kidney, ATCC), transient transfection; crude membranes. To be noted: class by percent of control at 10^-7 M or IC50. The procedure, abridged:
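Membranes from 293 cells transiently transfected with human MCH receptor competed test compounds against a radiolabelled MCH ligand in Tris-HCl pH 7.4 with MgCl2 and EDTA for 60–120 min at room temperature. Filtration and scintillation counting followed, with cold MCH defining nonspecific binding. IC50 came from logit-log plots of %B/B0, and Ki from the Cheng-Prusoff equation.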

MCH receptor, sequence (Q99705 whole entry): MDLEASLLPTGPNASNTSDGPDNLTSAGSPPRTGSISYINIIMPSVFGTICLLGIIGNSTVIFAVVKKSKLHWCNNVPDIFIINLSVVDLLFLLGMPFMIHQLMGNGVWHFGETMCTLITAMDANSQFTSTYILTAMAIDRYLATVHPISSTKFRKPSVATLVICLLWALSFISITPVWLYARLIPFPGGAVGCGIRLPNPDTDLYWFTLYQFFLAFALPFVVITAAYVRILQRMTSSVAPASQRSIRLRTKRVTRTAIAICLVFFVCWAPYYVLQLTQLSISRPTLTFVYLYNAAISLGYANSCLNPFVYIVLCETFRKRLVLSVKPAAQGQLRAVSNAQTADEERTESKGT

On to `Cc1nc(N[C@H]2CC[C@@H](NCCc3ccccc3Br)CC2)cc(N(C)C)n1` [compound 406], for which the class is 3 (Class 3: The value of percent of control at 10^−7 M was more than 60% or the value of IC50 was more than 200 nM.).

With `Cc1nc(N[C@H]2CC[C@@H](NC(=O)c3snnc3C)CC2)cc(N(C)C)n1` [compound 229], the class is listed as 3 (Class 3: The value of percent of control at 10^−7 M was more than 60% or the value of IC50 was more than 200 nM.).

Take `Cc1ccc(S(=O)(=O)NCC(=O)N[C@H]2CC[C@@H](Nc3cc(N(C)C)nc(C)n3)CC2)cc1` [compound 317]: the class is recorded as 3 (Class 3: The value of percent of control at 10^−7 M was more than 60% or the value of IC50 was more than 200 nM.).

For the molecule `Cc1cc(C)c(NC(=S)N[C@H]2CC[C@@H](Nc3cc(N(C)C)nc(C)n3)CC2)c(C)c1` [compound 437, N-(cis-4-{[6-(dimethylamino)-2-methylpyrimidin-4-yl]amino}cyclohexyl)-N′-mesitylthiourea], the class is on record as 2 (Class 2: The value of percent of control at 10^−7 M was from 40% to 60% or the value of IC50 was from 50 nM to 200 nM.).

For `COC(=O)c1ccc(S(=O)(=O)N[C@H]2CC[C@@H](Nc3cc(N(C)C)nc(C)n3)CC2)n1C` [compound 507], the class is on record as 3 (Class 3: The value of percent of control at 10^−7 M was more than 60% or the value of IC50 was more than 200 nM.).

Regarding `Cc1nc(N[C@H]2CC[C@@H](NC(=O)c3cc4ccccc4s3)CC2)cc(N(C)C)n1` [compound 203], the class was 3 (Class 3: The value of percent of control at 10^−7 M was more than 60% or the value of IC50 was more than 200 nM.).

On to `Cc1nc(N[C@H]2CC[C@@H](NC(=O)Cc3ccccc3I)CC2)cc(N(C)C)n1` [compound 287], for which the class is listed as 3 (Class 3: The value of percent of control at 10^−7 M was more than 60% or the value of IC50 was more than 200 nM.).

On to `Cc1nc(N[C@H]2CC[C@@H](NC(=O)Nc3c(C)cccc3C(C)(C)C)CC2)cc(N(C)C)n1` [compound 422], for which the class is recorded as 2 (Class 2: The value of percent of control at 10^−7 M was from 40% to 60% or the value of IC50 was from 50 nM to 200 nM.).

Regarding `C=Cc1ccc(S(=O)(=O)N[C@H]2CC[C@@H](Nc3cc(N(C)C)nc(C)n3)CC2)cc1` [compound 482], the class is reported as 3 (Class 3: The value of percent of control at 10^−7 M was more than 60% or the value of IC50 was more than 200 nM.).

`Cc1nc(N[C@H]2CC[C@@H](NC(=O)OC3C[C@H](C)CC[C@H]3C(C)C)CC2)cc(N(C)C)n1` (stereo partly drawn) [compound 465]: the class was 3 (Class 3: The value of percent of control at 10^−7 M was more than 60% or the value of IC50 was more than 200 nM.).

Turning to `COC(=O)c1scc(C)c1NC(=S)N[C@H]1CC[C@@H](Nc2cc(N(C)C)nc(C)n2)CC1` [compound 451], the class is given as 3 (Class 3: The value of percent of control at 10^−7 M was more than 60% or the value of IC50 was more than 200 nM.).

With `Cc1nc(N[C@H]2CC[C@@H](NC(=O)c3cccs3)CC2)cc(N(C)C)n1` [compound 243], the class is 3 (Class 3: The value of percent of control at 10^−7 M was more than 60% or the value of IC50 was more than 200 nM.).

As for `Cc1nc(N[C@H]2CC[C@@H](NC(=O)COCc3ccccc3)CC2)cc(N(C)C)n1` [compound 206], the class is reported as 3 (Class 3: The value of percent of control at 10^−7 M was more than 60% or the value of IC50 was more than 200 nM.).

Consider `COc1cccc(S(=O)(=O)N[C@H]2CC[C@@H](Nc3cc(N(C)C)nc(C)n3)CC2)c1` [compound 493], for which the class is on record as 3 (Class 3: The value of percent of control at 10^−7 M was more than 60% or the value of IC50 was more than 200 nM.).

As to `Cc1nc(N[C@H]2CC[C@@H](NS(=O)(=O)c3ccc(Oc4ncc(C(F)(F)F)cc4Cl)cc3)CC2)cc(N(C)C)n1` [compound 497], the class is listed as 3 (Class 3: The value of percent of control at 10^−7 M was more than 60% or the value of IC50 was more than 200 nM.).

As to `COC(=O)N[C@H]1CC[C@@H](Nc2cc(N(C)C)nc(C)n2)CC1` [compound 467], the class is 3 (Class 3: The value of percent of control at 10^−7 M was more than 60% or the value of IC50 was more than 200 nM.).

As for `Cc1nc(N[C@H]2CC[C@@H](NC(=O)Cc3ccc(OC(F)(F)F)cc3)CC2)cc(N(C)C)n1` [compound 313], the class was 3 (Class 3: The value of percent of control at 10^−7 M was more than 60% or the value of IC50 was more than 200 nM.).

As for `Cc1ccc(SC(CC(=O)c2ccc(F)cc2)C(=O)N[C@H]2CC[C@@H](Nc3cc(N(C)C)nc(C)n3)CC2)cc1` (relative stereo) [compound 311], the class is reported as 3 (Class 3: The value of percent of control at 10^−7 M was more than 60% or the value of IC50 was more than 200 nM.).

Consider `Cc1nc(N[C@H]2CC[C@@H](NCc3ccc4c(c3)C(=O)c3ccccc3C4=O)CC2)cc(N(C)C)n1` [compound 353], for which the class is 3 (Class 3: The value of percent of control at 10^−7 M was more than 60% or the value of IC50 was more than 200 nM.).

On to `Cc1nc(N[C@H]2CC[C@@H](NC(=O)C(C)c3ccc(C(=O)c4cccs4)cc3)CC2)cc(N(C)C)n1` (relative stereo) [compound 312], for which the class is 3 (Class 3: The value of percent of control at 10^−7 M was more than 60% or the value of IC50 was more than 200 nM.).

For `Cc1nc(N[C@H]2CC[C@@H](NC(=S)Nc3ccc(C#N)cc3)CC2)cc(N(C)C)n1` [compound 450], the class is 3 (Class 3: The value of percent of control at 10^−7 M was more than 60% or the value of IC50 was more than 200 nM.).

In the case of `Cc1nc(N[C@H]2CC[C@@H](NCCSc3ccccc3)CC2)cc(N(C)C)n1` [compound 391], the class was 3 (Class 3: The value of percent of control at 10^−7 M was more than 60% or the value of IC50 was more than 200 nM.).

With `Cc1nc(N[C@H]2CC[C@@H](NC(=O)Nc3c(C)cc(Br)cc3C)CC2)cc(N(C)C)n1` [compound 416, N-(4-bromo-2,6-dimethylphenyl)-N′-(cis-4-{[6-(dimethylamino)-2-methylpyrimidin-4-yl]amino}cyclohexyl)urea], the class is listed as 1 (Class 1: The value of percent of control at 10^−7 M was less than 40% or the value of IC50 was less than 50 nM.).

Consider `Cc1nc(N[C@H]2CC[C@@H](NCC(C)(C)Oc3ccc(Cl)cc3)CC2)cc(N(C)C)n1` [compound 408], for which the class was 3 (Class 3: The value of percent of control at 10^−7 M was more than 60% or the value of IC50 was more than 200 nM.).

In the case of `Cc1nc(N[C@H]2CC[C@@H](NC(=O)OCC3c4ccccc4-c4ccccc43)CC2)cc(N(C)C)n1` [compound 469], the class is 3 (Class 3: The value of percent of control at 10^−7 M was more than 60% or the value of IC50 was more than 200 nM.).

Regarding `Cc1ccc(C(=O)c2ccccc2C(=O)N[C@H]2CC[C@@H](Nc3cc(N(C)C)nc(C)n3)CC2)cc1` [compound 330], the class is recorded as 3 (Class 3: The value of percent of control at 10^−7 M was more than 60% or the value of IC50 was more than 200 nM.).

As for `COc1ccc(Oc2ccc([N+](=O)[O-])cc2C(=O)N[C@H]2CC[C@@H](Nc3cc(N(C)C)nc(C)n3)CC2)cc1` [compound 230, N-(cis-4-{[6-(dimethylamino)-2-methylpyrimidin-4-yl]amino}cyclohexyl)-2-(4-methoxyphenoxy)-5-nitrobenzamide], the class is on record as 2 (Class 2: The value of percent of control at 10^−7 M was from 40% to 60% or the value of IC50 was from 50 nM to 200 nM.).

As to `Cc1nc(N[C@H]2CC[C@@H](NC(=O)c3ccc(F)cc3C(F)(F)F)CC2)cc(N(C)C)n1` [compound 249], the class is 3 (Class 3: The value of percent of control at 10^−7 M was more than 60% or the value of IC50 was more than 200 nM.).

For the molecule `Cc1nc(N[C@H]2CC[C@@H](NC(=O)Nc3c(Br)cc(Br)cc3Br)CC2)cc(N(C)C)n1` [compound 429, N-(cis-4-{[6-(dimethylamino)-2-methylpyrimidin-4-yl]amino}cyclohexyl)-N′-(2,4,6-tribromophenyl)urea], the class is recorded as 1 (Class 1: The value of percent of control at 10^−7 M was less than 40% or the value of IC50 was less than 50 nM.).

`Cc1nc(N[C@H]2CC[C@@H](NS(=O)(=O)c3ccc(S(C)(=O)=O)cc3)CC2)cc(N(C)C)n1` [compound 498]: the class is 3 (Class 3: The value of percent of control at 10^−7 M was more than 60% or the value of IC50 was more than 200 nM.).

Consider `Cc1nc(N[C@H]2CC[C@@H](NC(=O)C3=Cc4cc(Cl)ccc4OC3)CC2)cc(N(C)C)n1` [compound 271], for which the class is recorded as 3 (Class 3: The value of percent of control at 10^−7 M was more than 60% or the value of IC50 was more than 200 nM.).

Take `Cc1nc(N[C@H]2CC[C@@H](NS(=O)(=O)c3ccc(Br)s3)CC2)cc(N(C)C)n1` [compound 520]: the class is on record as 3 (Class 3: The value of percent of control at 10^−7 M was more than 60% or the value of IC50 was more than 200 nM.).

Take `Cc1nc(N[C@H]2CC[C@@H](NC(=O)c3ccc(Cl)cc3)CC2)cc(N(C)C)n1` [compound 208, 4-chloro-N-(cis-4-{[6-(dimethylamino)-2-methylpyrimidin-4-yl]amino}cyclohexyl)benzamide]: the class is 2 (Class 2: The value of percent of control at 10^−7 M was from 40% to 60% or the value of IC50 was from 50 nM to 200 nM.).

Regarding `CC(=O)N[C@H]1CC[C@@H](Nc2cc(N(C)C)nc(C)n2)CC1` [compound 199], the class is listed as 3 (Class 3: The value of percent of control at 10^−7 M was more than 60% or the value of IC50 was more than 200 nM.).

`Cc1nc(N[C@H]2CC[C@@H](NC(=O)Nc3ccc(Br)cc3C)CC2)cc(N(C)C)n1` [compound 420]: the class is listed as 3 (Class 3: The value of percent of control at 10^−7 M was more than 60% or the value of IC50 was more than 200 nM.).

For `Cc1nc(N[C@H]2CC[C@@H](NS(=O)(=O)c3ccc(Oc4ccccc4)cc3)CC2)cc(N(C)C)n1` [compound 496], the class was 3 (Class 3: The value of percent of control at 10^−7 M was more than 60% or the value of IC50 was more than 200 nM.).
